{"source": "patent US8338622B2", "about": "“Heterocyclic compound” (Takeda Pharmaceutical Company Limited, priority 2008, dated 2012)", "key": {"[1]": {"biological_target": "T1, human RBP4 (Homo sapiens, UniProt P02753)", "T1 construct": "the culture supernatant containing secreted/expressed hRBP4-His was recovered; His tag (His6, read from the HISENU oligo); made in house; host or cells: FreeStyle293 expression system (Invitrogen), secreted into the culture supernatant", "test": "Binding assay by Retinol-RBP4-TTR ELISA (human type ELISA)", "details": "retinol 0.5 μM, read-out: human RBP4 binding inhibitory activity (IC50 nM)", "description": "The action of the compound of the present invention to inhibit the binding between RBP4, and retinol and TTR was evaluated using the Retinol-RBP4-TTR ELISA (human type ELISA) system shown below.\nThe binding assay was performed by an ELISA system (Retinol-RBP4-TTR ELISA) for detecting retinol-RBP4-TTR conjugate by streptavidin-biotin reaction.\nHis-tagged human RBP4 used was prepared in the above-mentioned 1C.\nBiotinylated human TTR used was prepared in the above-mentioned 1E.\nStreptavidin (20 μl) (10 μg/ml Streptavidin type II (Wako Pure Chemical Industries, Ltd.), 10 mM Tris-HCl (pH 7.5), 10 mM NaCl) was added to a 384 well black maxisorp plate (Nunc), and the plate was subjected to centrifugation (1000 rpm, 1 min) and coated overnight at 4° C. The plate was washed twice with PBST (PBS, 0.05% Tween 20, 100 μl/well) and blocked with 25% Block Ace (Snow Brand Milk Products Co., Ltd., PBS, 100 μl/well). The plate was subjected to centrifugation (1000 rpm, 1 min) and incubated at room temperature for 4 hr or overnight at 4° C. The plate was washed twice with PBST (PBS, 0.05% Tween 20, 100 μl/well), and biotinylated human TTR (stock solution concentration 1.3 mg/ml) diluted 1000-fold with PBST was added at 20 μl/well. The plate was subjected to centrifugation (1000 rpm, 1 min) and stood still at room temperature for 1.5 hr or overnight at 4° C. The plate was washed 3 times with PEST (100 μl/well), and His-tagged human RBP4 (stock solution concentration 0.96 mg/ml) diluted 4000-fold with a reaction buffer (50 mM Tris-HCl, 150 mM NaCl, 0.005% Tween 20, 1 mM DTT, 0.1% BSA) was added at 10 μl/well. The dilution series (8 doses from 10 mM, 200-fold concentration) of the compound was prepared with DMSO, and 1 μl of each was added to a reaction buffer (200 μl) containing retinol (0.5 μM) (Sigma-Aldrich Co.). A reaction buffer (200 μl) containing retinol and added with DMSO was used as a positive control, and reaction buffer (200 μl) free of retinol and added with DMSO was used as a negative control. Mixed solutions of retinol and the compound were added to the plate at 15 μl/well. The mixture was stirred in a platemixer, subjected to centrifugation (1000 rpm, 1 min) and reacted at room temperature for 2 hr. A 35% Block Ace solution diluted with the reaction buffer was added at 10 μl/well, centrifuged (1000 rpm, 1 min) and reacted at room temperature for 30 min. The plate was washed 3 times with PBST (100 μl/well) and SuperSignal ELISA Femto Maximum Sensitivity Substrate reagent (PIERCE) was added at 30 μl/well, and the luminescence was measured by a platereader (Wallac).\nThe binding activity rate of the compound was determined by 100×(test compound value−negative control value)/(positive control value−negative control value). The binding inhibitory activity (IC50) was calculated from the binding activity rate at each compound concentration using a graph drawing software, Prism (GraphPad Software Inc.)."}, "[2]": {"biological_target": "T2, RBP4 (Mus musculus, UniProt Q00724)", "T2 construct": "from tissue; host or cells: plasma of male C57BL/6J mice (Charles River Laboratories Japan Inc.)", "test": "Blood RBP4 lowering action in C57BL/6J mouse, single oral administration", "assay_type": "in vivo", "details": "plasma, mean±SD n=5; for RBP4 (% of initial/Control) 0 hr later: 0 hr value before administration, 50 mg/kg oral; for RBP4 (% of initial/Control) 4 hr later: 4 hr after 50 mg/kg oral; for RBP4 (% of initial/Control) 7 hr later: 7 hr after 50 mg/kg oral; for RBP4 (% of initial/Control) 24 hr later: 24 hr after 50 mg/kg oral", "description": "A blood RBP4 lowering action of the compound of the present invention was evaluated using C57BL/6J mouse.\nMale 7- to 15-week-old C57BL/6J mice (Charles River Laboratories Japan Inc.) were individually bred for acclimation for 4-6 days under conditions with free access to CE-2 solid food (CLEA Japan, Inc.), and grouped based on the body weight (5 per group). The next day of grouping, blood samples were collected from the orbital venous plexus, and plasma was separated (0 hr value). Thereafter, the test compounds (Examples 1, 13, 15, 16, 17, 27 and 34) were orally administered at a dose of 50 mg/kg (solvent: 0.5% methylcellulose solution (10 mL/kg)). At 4, 7 and 24 hr after administration of the compounds, blood samples were collected from the orbital venous plexus, and plasma was separated. A 0.5% methylcellulose solution (10 mL/kg) was orally administered to the control group.\nThe RBP4 level of the collected plasma was measured by ELISA. RBP4 was quantified by the following steps using a rabbit, anti-mouse RBP4 polyclonal antibody (Hokudo Co., Ltd). A 96 well ELISA plate was coated with 50 μg/ml of the antibody (100 μL) and stood at 4° C. overnight. After blocking with BlockAce (DAINIPPON PHARMACEUTICAL CO., LTD.), mouse RBP4 or a sample (100 μL) was added and the plate was stood at room temperature for 2 hr. After washing with PBS-0.5% Tween 20, HRP-labeled anti-RBP4 antibody (prepared by labeling RBP4 polyclonal antibody (Hokudo Co., Ltd) with HRP (DOJINDO LABORATORIES)) was added by 100 μL, and the plate was stood at room temperature for 1 hr. After washing, TMB (Dako Cytomations) was added, and the mixture was stood at room temperature for 20 min to allow color development, and the reaction was quenched with 2N sulfuric acid. Thereafter, the absorbance at A450 nm was measured on a platereader. The amount of change from the initial value of each animal was determined as a relative value from the control group (% of initial/Control) at each time point. The results are shown in the following in mean±standard deviation (n=5)."}, "[3]": {"test_system": "Zucker fa/fa rats", "test": "Hypoglycemic action in Zucker fa/fa rats (Experimental Example 4A)", "assay_type": "in vivo, rat", "details": "30 mg/kg oral for 2 weeks", "description": "(§1) A hypoglycemic action of the compound of the present invention was evaluated using Zucker fa/fa rats.\nMale 19-week-old Zucker fa/fa rats (Takeda Pharmaceutical Company Limited) were bred in group on CE-2 solid food (CLEA Japan, Inc.) until 12-week-old, thereafter bred on high-fat diet D06110702 (LSG Corporation) for acclimation under conditions with free access to food. At 19-week-old, the rats were grouped based on the body weight, blood glucose level, glycated hemoglobin level and blood RBP4 level value (6 per group). Thereafter, the test compound (Example 34) was orally administered at a dose of 30 mg/kg (solvent: 0.5% methylcellulose solution (5 mL/kg)) for 2 weeks. After 24 hr of the final administration of the compound, blood samples were collected from the tail vein, and plasma was separated. Using the collected plasma, (1) RBP4 concentration, (2) glycated hemoglobin level and (3) blood glucose level were measured. (1) was quantified according to the protocol described in Experimental Example 3. (2) was measured using Tosoh Corporation automatic glycohemoglobin analyzer (HLC-723 GHbV A1c2.2 or HLC-723G7 GHbV A1c2.2), and (3) was measured using Hitachi full-automatic analyzer (7070 or 7080), respectively.\nA 0.5% methylcellulose solution (5 mL/kg) was orally administered to the control group. […] The results are shown in the following in mean±standard deviation (n=6). In the following Table, glycated hemoglobin change is obtained by subtracting the value before administration from that after administration."}, "[4]": {"test_system": "Zucker fa/fa rats", "test": "Hypoglycemic action in Zucker fa/fa rats (Experimental Example 4B)", "assay_type": "in vivo, rat", "details": "10 mg/kg oral for 2 weeks, mean±SD n=5; for blood glucose level / RBP4: 24 hr after final administration; for glycated hemoglobin change (%): value after minus before administration; for RBP4: plasma", "description": "as §1\nMale 25-week-old Zucker fa/fa rats (Takeda Pharmaceutical Company Limited) were acclimation bred in groups on CE-2 solid food (CLEA Japan, Inc.) up to 12 weeks of age, thereafter on high-fat diet D06110702 (LSG Corporation), with free access to food. At 25 weeks of age, the rats were grouped based on the body weight, blood glucose level, glycated hemoglobin level and blood RBP4 level (5 per group). Then, test compounds (Examples 16 and 17) were orally administered at a dose of 10 mg/kg (solvent: 0.5% methylcellulose solution (3 mL/kg)) for 2 weeks. At 24 hr from the final administration of the compounds, blood samples were collected from the tail vein, and plasma was separated. Using the collected plasma, (1) RBP4 concentration, (2) glycated hemoglobin level and (3) blood glucose level were measured. (1) was quantified according to the protocol described in Experimental Example 3. (2) was measured using Tosoh Corporation automatic glycohamoglobin analyzer (HLC-723 GHbV A1c2.2 or HLC-723G7 GHbV A1c2.2), and (3) was measured using Hitachi full-automatic analyzer (7070 or 7080).\nA 0.5% methylcellulose solution (3 ml/kg) was orally administered to the control group. The results are shown below in mean±standard deviation (n=5). In the following Table, glycated hemoglobin change is obtained by subtracting the value before administration from that after administration."}}, "data": [{"compound": "O=C(O)CCC1CCC(c2cc(C(F)(F)F)cc(C(F)(F)F)c2)O1", "note": "(racemic) [Example 34, 3-{5-[3,5-bis(trifluoromethyl)phenyl]tetrahydrofuran-2-yl}propanoic acid]", "values": [{"measurement": "IC50", "setting": "[1]", "value": 26, "unit": "nM"}, {"measurement": "RBP4 (% of initial/Control) 0 hr later", "setting": "[2]", "value": "100.0 ± 5.6 % of initial/Control"}, {"measurement": "RBP4 (% of initial/Control) 4 hr later", "setting": "[2]", "value": "37.4 ± 2.4 % of initial/Control"}, {"measurement": "RBP4 (% of initial/Control) 7 hr later", "setting": "[2]", "value": "34.8 ± 2.6 % of initial/Control"}, {"measurement": "RBP4 (% of initial/Control) 24 hr later", "setting": "[2]", "value": "107.4 ± 15.3 % of initial/Control"}, {"measurement": "blood RBP4 concentration (in words)", "setting": "[3]", "value": "significant decrease"}, {"measurement": "blood glucose level (in words)", "setting": "[3]", "value": "significant decrease"}, {"measurement": "glycated hemoglobin change (in words)", "setting": "[3]", "value": "significant decrease"}, {"measurement": "blood glucose level", "setting": "[3]; 24 hr after final administration, mean±SD n=6", "value": "157.2 ± 50.6", "unit": "mg/dL"}, {"measurement": "glycated hemoglobin change (%)", "setting": "[3]; value after minus before administration, mean±SD n=6", "value": "−1.72 ± 0.52", "unit": "%"}, {"measurement": "RBP4", "setting": "[3]; plasma, 24 hr after final administration, mean±SD n=6", "value": "5.2 ± 0.2", "unit": "µg/mL"}]}, {"compound": "O=C(O)CO[C@H]1CCN(c2cc(C(F)(F)F)cc(C(F)(F)F)c2)C1", "note": "[Example 16, ({(3S)-1-[3,5-bis(trifluoromethyl)phenyl]pyrrolidin-3-yl}oxy)acetic acid]", "values": [{"measurement": "IC50", "setting": "[1]", "value": 28, "unit": "nM"}, {"measurement": "RBP4 (% of initial/Control) 0 hr later", "setting": "[2]", "value": "100.0 ± 11.0 % of initial/Control"}, {"measurement": "RBP4 (% of initial/Control) 4 hr later", "setting": "[2]", "value": "39.5 ± 0.6 % of initial/Control"}, {"measurement": "RBP4 (% of initial/Control) 7 hr later", "setting": "[2]", "value": "39.6 ± 0.4 % of initial/Control"}, {"measurement": "RBP4 (% of initial/Control) 24 hr later", "setting": "[2]", "value": "37.5 ± 0.4 % of initial/Control"}, {"measurement": "blood glucose level", "setting": "[4]", "value": "275.9 ± 127.5", "unit": "mg/dL"}, {"measurement": "glycated hemoglobin change (%)", "setting": "[4]", "value": "−0.58 ± 0.59", "unit": "%"}, {"measurement": "RBP4", "setting": "[4]", "value": "5.7 ± 0.1", "unit": "µg/mL"}]}, {"compound": "O=C(O)CO[C@@H]1CCN(c2cc(C(F)(F)F)cc(C(F)(F)F)c2)C1", "note": "[Example 17, ({(3R)-1-[3,5-bis(trifluoromethyl)phenyl]pyrrolidin-3-yl}oxy)acetic acid]", "values": [{"measurement": "IC50", "setting": "[1]", "value": 20, "unit": "nM"}, {"measurement": "RBP4 (% of initial/Control) 0 hr later", "setting": "[2]", "value": "100.0 ± 7.1 % of initial/Control"}, {"measurement": "RBP4 (% of initial/Control) 4 hr later", "setting": "[2]", "value": "42.2 ± 0.6 % of initial/Control"}, {"measurement": "RBP4 (% of initial/Control) 7 hr later", "setting": "[2]", "value": "40.5 ± 0.2 % of initial/Control"}, {"measurement": "RBP4 (% of initial/Control) 24 hr later", "setting": "[2]", "value": "38.6 ± 0.8 % of initial/Control"}, {"measurement": "blood glucose level", "setting": "[4]", "value": "255.4 ± 106.7", "unit": "mg/dL"}, {"measurement": "glycated hemoglobin change (%)", "setting": "[4]", "value": "−0.60 ± 0.39", "unit": "%"}, {"measurement": "RBP4", "setting": "[4]", "value": "6.0 ± 0.1", "unit": "µg/mL"}]}]}
